Experimental data published in patent publication US20250263677A1, “BIOCATALYTIC USE OF NONHEME IRON PROTEINS FOR MOLECULAR FUNCTIONALIZATION” (The Johns Hopkins University, priority 2022, published 2025).
Read-outs that look alike come from different tables or passages of the source.

Tests used:
Format in all cases: biochemical
[1] = target: Streptomyces avermitilis (4-hydroxyphenyl)pyruvate dioxygenase (Sav HppD) variant Az2 V189A N191A S230L P243G N245F Q255P L367I, SEQ ID NO: 3 (Streptomyces avermitilis, UniProt Q53586, L367I/N191A/N245F/P243G/Q255P/S230L/V189A); test: Kinetic analysis of 1NF azidation by purified Sav HppD Az2 (anaerobic, GCMS product quantification); details: comparator not given
Method: (§1) FIG. 10 is a series of plots which summarize kinetics for non-heme iron enzyme mediated azidation reactions. The leftmost plot provides kinetics data for wild-type Sav HppD. The middle plot provides kinetics data for Az1 Sav HppD. The rightmost plot provides kinetics data for Az2 Sav HppD.
(§2) Protein expression was conducted following the protocols detailed in section (B). E. coli cells expressing non-heme iron enzyme variants were pelleted (4,000×g, 5 min, 4° C.) and stored at −20° C. for at least 24 hours. The cell pallet was then resuspended in 50 mM KPi buffer containing 100 mM NaCl and 20 mM imidazole (pH 7.5 at 25° C.) (10 mL buffer per gram of cell pellet). […] Fractions containing purified proteins were detected by SDS-PAGE, pooled and concentrated using Millipore® centrifugal filter. […] Final concentration was measured by absorbance at 280 nm using a NanoDrop spectrophotometer. The theoretical extinction coefficients (M^−1 cm^−1) used for Say HppD and its variants were calculated using ExPASy Bioinformatics Resources Portal. […]
(§3) Kinetic analyses for wild-type Sav HppD, Az1, and Az2 mediated 1NF azidation were performed in an anaerobic chamber. […] After centrifugation at 12,000 rpm for 10 mins, an aliquot (200 μL) of the organic layer was taken for GCMS analysis for product quantification.

[2] = target: Streptomyces avermitilis (4-hydroxyphenyl)pyruvate dioxygenase (Sav HppD) variant Az1 V189A F216A P243A N245Q Q255A L367I, SEQ ID NO: 2 (Streptomyces avermitilis, UniProt Q53586, F216A/L367I/N245Q/P243A/Q255A/V189A); test: Kinetic analysis of 1NF azidation by purified Sav HppD Az1 (anaerobic, GCMS product quantification); details: Az1 vs wt
Method: as §1, §2, §3

[3] = Replacement of azide with other halide or pseudohalide anions, Sav HppD Az1 cell lysate
Method: We also tried to extend the scope of N-radical precursors and replace azide with other halide or pseudohalide anions, the results of which analyses are summarized in TABLE 5. For these analyses. ferrous ammonium sulfate (10 μL, 100 mM in water), sodium halide or pseudohalide solution (10 μL, 1 M in water), and N-fluoroamide substrate 1NF (10 μL, 400 mM in DME) were added to a 2 mL vial containing Sav HppD Az1 cell lysate (400 μL, obtained from OD600=20 cell suspension) in an anerobic chamber. The vial was capped and shaken at 680 rpm at room temperature for 24 hours. At the end of the reaction, the vial was opened and the reaction was quenched with 0.8 mL of a hexanes/ethylacetate solution (4:6 v/v) of internal standard 1,2,3-trimethoxybenzene (0.5 mM final concentration). The reaction mixture was transferred to a 2 mL microcentrifuge tube, vortexed (10 seconds, 3 times), then centrifuged (14,000×g, 5 min) to completely separate the organic and aqueous layers. […]

[4] = Sav HppD Az1 cell lysate (OD600=20), 1NF, GCMS peak area over internal standard, 24 hours

Streptomyces avermitilis (4-hydroxyphenyl)pyruvate dioxygenase (Sav HppD) variant Az1 V189A F216A P243A N245Q Q255A L367I, SEQ ID NO: 2, sequence (Q53586 whole entry V189A/F216A/P243A/N245Q/Q255A/L367I): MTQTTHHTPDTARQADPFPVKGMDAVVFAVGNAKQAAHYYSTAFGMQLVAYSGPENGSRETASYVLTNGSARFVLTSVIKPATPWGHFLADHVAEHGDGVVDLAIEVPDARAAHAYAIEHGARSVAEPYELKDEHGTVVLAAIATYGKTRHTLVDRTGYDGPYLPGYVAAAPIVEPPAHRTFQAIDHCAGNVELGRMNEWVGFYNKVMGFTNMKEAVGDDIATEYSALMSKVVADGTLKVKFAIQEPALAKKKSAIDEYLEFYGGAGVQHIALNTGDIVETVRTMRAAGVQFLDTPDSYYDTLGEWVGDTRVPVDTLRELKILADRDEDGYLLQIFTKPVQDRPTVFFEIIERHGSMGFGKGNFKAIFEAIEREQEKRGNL
Streptomyces avermitilis (4-hydroxyphenyl)pyruvate dioxygenase (Sav HppD) variant Az2 V189A N191A S230L P243G N245F Q255P L367I, SEQ ID NO: 3, sequence (Q53586 whole entry V189A/N191A/S230L/P243G/N245F/Q255P/L367I): as the sequence (Q53586 whole entry V189A/F216A/P243A/N245Q/Q255A/L367I) above, with N191A, A216F, S230L, A243G, Q245F, A255P counted along it

Row | SMILES | IA/internal [3, 4] | IF/internal [3, 4] | further results
1 | CCc1ccccc1C(=O)N(F)C(C)(C)C [1NF, N-(tert-butyl)-2-ethyl-N-fluorobenzamide] |  |  | decrease in KM [1]: 6.6 fold; decrease in kcat [1]: 9 fold; increase in KM over the wild-type enzyme [2]: 1.7 fold; increase in kcat over the wild-type enzyme [2]: 4.1 fold
2 | [Cl-].[Na+] [NaCl] |  |  | IA/internal [3]: 2.3; IF/internal [3]: 0.04
3 | N#C[S-].[Na+] [NaSCN] | 2.7 | 0.05 | 
4 | [F-].[Na+] [NaF] | 2.5 | 0.04 | 
5 | O=N[O-].[Na+] [NaNO2] |  |  | IA/internal [3]: 1.9; IF/internal [3]: 0.03
6 | N#C[O-].[Na+] [NaOCN] | 2.1 | 0.03 | 
7 | [Br-].[Na+] [NaBr] | 2.4 | 0.04 | 
